The target in one test is T1, cKIT (Homo sapiens, UniProt P10721).
T1 construct: The kinase domain of cKIT was assayed in 50 mM Hepes; purchased Upstate 14-559
Briefly: Inhibition of cKIT kinase in an in vitro biochemical assay (alphascreen). Conditions: tested at about 1 μM. The protocol:
(§1) The IC50 values for the inhibition of RTKs were determined in the alphascreen format measuring the inhibition by compound of phosphate transfer to a substrate by the respective enzyme. Briefly, the respective RTK domain purchased as human recombinant protein (cKIT Upstate #14-559, PDGFRb Invitrogen #P3082) were incubated with serial dilutions of compound in the presence of substrate and ATP concentrations within 3 times the Km of the enzyme.
(§2) The kinase domain of cKIT was assayed in 50 mM Hepes, pH=7.5, 5 mM MgCl2, 10 mM MnCl2, 1 mM DTT, 0.1% BSA with 0.06 uM biotinylated peptide substrate (GGLFDDPSYVNVQNL-NH2) and 15 μM ATP (ATP KM apparent =15 μM). The kinase domain of PDGFRβ was assayed in 50 mM Hepes, pH=7.5, 20 mM MgCl2, 1 mM DTT, 0.1% BSA with 0.1 μM biotinylated peptide substrate (GGLFDDPSYVNVQNL-NH2) and 10 μM ATP (ATP KM apparent=25 μM). Reactions were incubated at room temperature for 3 to 4 hr and stopped with buffer (20 mM EDTA, 0.01% Tween-20 for both PDGFRβ and cKIT). Alphascreen PY20 beads were added to the stopped cKIT reactions and PY20 Ab/Protein A Alphascreen beads were added to the PDGFRβ stopped reactions. Both reactions were incubated overnight and read on the Alphascreen reader. The concentration of compound for 50% inhibition (IC50) was calculated employing non-linear regression using XL-Fit data analysis software. As a control compound, staurosporine is run in every assay and a Z′>0.5 is required to validate results.

Test [1] deals with T2, cytoplasmic domain of the human CSF-1R (Homo sapiens, UniProt P07333).
T2 construct: Recombinant protein corresponding to the cytoplasmic domain of the human CSF-1R; purchased Invitrogen Corporation, Carlsbad, Calif; U.S.A. PV3249
T2 sequence (P07333 539-972 limits assumed): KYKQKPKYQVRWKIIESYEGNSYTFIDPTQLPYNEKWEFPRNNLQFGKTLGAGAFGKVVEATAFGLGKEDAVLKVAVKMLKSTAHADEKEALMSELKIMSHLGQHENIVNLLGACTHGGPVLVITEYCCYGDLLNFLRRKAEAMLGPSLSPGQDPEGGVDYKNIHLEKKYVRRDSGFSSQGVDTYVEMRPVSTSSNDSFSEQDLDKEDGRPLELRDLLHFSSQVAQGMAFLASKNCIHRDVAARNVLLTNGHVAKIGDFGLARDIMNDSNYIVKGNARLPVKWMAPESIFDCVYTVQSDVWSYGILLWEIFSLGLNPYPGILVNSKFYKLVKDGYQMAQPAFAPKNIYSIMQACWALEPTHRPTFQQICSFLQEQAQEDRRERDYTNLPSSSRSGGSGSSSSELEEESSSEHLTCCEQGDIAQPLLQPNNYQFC
In words: In vitro kinase assay for CSF-1R (AlphaScreen). It is filed as biochemical. Conditions: tested at about 1 μM. The protocol: The kinase activity of various protein tyrosine kinases can be measured by providing ATP and a suitable peptide or protein tyrosine-containing substrate, and assaying the transfer of phosphate moiety to the tyrosine residue. Recombinant protein corresponding to the cytoplasmic domain of the human CSF-1R was purchased from Invitrogen Corporation, Carlsbad, Calif. U.S.A. (#PV3249). For each assay, test compounds were serially diluted, starting at 25 μM with 3 fold dilutions, in DMSO in 384 well plates then mixed with an appropriate kinase reaction buffer consisting of 50 mM Hepes, 5 mM MgCl2, 10 mM MnCl2, 0.1% BSA, pH 7.5, 1.0 mM dithiothreitol, 0.01% Tween 80 plus […]. Kinase protein and an appropriate biotinylated peptide substrate at 50 nM were added to give a final volume of 20 μL, reactions were incubated for 2 hours at room temperature and stopped by the addition of 10 μL of 45 mM EDTA, 50 mM Hepes pH 7.5. Added to the stopped reaction mix was 30 μL of PT66 Alphascreen beads (Perkin Elmer, Boston, Mass., U.S.A.). The reaction was incubated overnight and read on the Envision (Perkin Elmer). Phosphorylated peptide product was measured with the AlphaScreen system (Perkin Elmer) using acceptor beads coated with anti-phosphotyrosine antibody PT66 and donor beads coated with streptavidin that emit a fluorescent signal at the 520-620 nm emission wave length if in close proximity. The concentration of each compound for 50% inhibition (IC50) was calculated by non-linear regression using XL Fit data analysis software.
CSF-1R kinase was assayed in 50 mM Hepes pH 7.0, 5 mM MgCl2, 10 mM MnCl2, 1 mM DTT, 1 mg/mL BSA, 1.0 μM ATP, and 0.05 μM biotin-GGGGRPRAATF-NH2 (SEQ ID NO:2) peptide substrate. CSF-1R kinase was added at final concentration of 4 nM.
Background: Alpha assays give light when donor and acceptor beads are brought close together.

Another test has as its target T3, PDGFRb (Homo sapiens, UniProt P09619).
T3 construct: The kinase domain of PDGFRβ was assayed in 50 mM Hepes; purchased Invitrogen P3082
In words: Inhibition of PDGFRb kinase in an in vitro biochemical assay (alphascreen). Conditions: tested at about 1 μM; read-out: PDGFR % inhibition at 1 μM. The protocol:
as §1, §2

The term inhibition denotes the relative decrease from the control value, in per cent.

Some results are limits rather than exact numbers.

T3 sequence (P09619 600-962 limits assumed): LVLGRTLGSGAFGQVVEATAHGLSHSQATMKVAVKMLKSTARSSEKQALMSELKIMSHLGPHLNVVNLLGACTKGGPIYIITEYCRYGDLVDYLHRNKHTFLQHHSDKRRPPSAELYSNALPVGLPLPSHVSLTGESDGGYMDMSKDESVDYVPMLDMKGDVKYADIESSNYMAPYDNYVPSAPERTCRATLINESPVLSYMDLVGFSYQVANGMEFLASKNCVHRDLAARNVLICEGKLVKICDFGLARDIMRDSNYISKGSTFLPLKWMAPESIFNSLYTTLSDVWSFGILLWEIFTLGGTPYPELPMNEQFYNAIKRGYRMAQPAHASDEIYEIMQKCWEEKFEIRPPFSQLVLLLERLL
T1 sequence (P10721 589-937 limits assumed): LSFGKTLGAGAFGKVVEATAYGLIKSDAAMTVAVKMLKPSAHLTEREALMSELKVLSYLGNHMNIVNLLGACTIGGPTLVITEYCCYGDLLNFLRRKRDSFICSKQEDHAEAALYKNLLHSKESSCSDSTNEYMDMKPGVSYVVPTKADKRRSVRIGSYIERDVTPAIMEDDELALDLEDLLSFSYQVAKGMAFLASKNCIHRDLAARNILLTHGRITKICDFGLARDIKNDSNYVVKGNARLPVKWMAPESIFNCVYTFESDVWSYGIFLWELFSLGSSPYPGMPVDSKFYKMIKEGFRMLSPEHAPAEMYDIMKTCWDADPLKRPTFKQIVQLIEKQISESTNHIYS

As to `CNC(=O)c1cc(Oc2ccc3nc(NCC(C)(C)N4CCOCC4)ncc3c2)ccn1` [Example 61, N-methyl-4-(2-(2-methyl-2-morpholinopropylamino)quinazolin-6-yloxy)picolinamide], the results for the inhibition at 1 µM (on cKIT; in test [1]; on PDGFRb) were 12%, 93% and under 1%, respectively.
Regarding `CNC(=O)c1cc(Oc2ccc3nc(N[C@@H](C)c4ccccc4)ncc3c2)ccn1` [Example 64, (S)-N-methyl-4-(2-(1-phenylethylamino)quinazolin-6-yloxy)picolinamide], the inhibition at 1 µM on cKIT stood at 16%; in test [1], 99%; on PDGFRb, 7%.
On to `CNC(=O)c1cc(Oc2ccc3nc(NC4CCCC4)ncc3c2)ccn1` [Example 66, 4-(2-(cyclopentylamino)quinazolin-6-yloxy)-N-methylpicolinamide], for which the inhibition at 1 µM at cKIT is 13%; in test [1], 96%; on PDGFRb, under 1%.
The matching figures for `CNC(=O)c1cc(Oc2ccc3nc(Nc4ccccc4CN4CCOCC4)ncc3c2)ccn1` [Example 67, N-methyl-4-(2-(2-(morpholinomethyl)phenylamino)quinazolin-6-yloxy)picolinamide]: 13%, 96% and under 1%.
With `CNC(=O)c1cc(Oc2ccc3nc(Nc4cccc5c4OC(F)(F)O5)ncc3c2)ccn1` [Example 68, 4-(2-(2,2-difluorobenzo[d][1,3]dioxol-4-ylamino)quinazolin-6-yloxy)-N-methylpicolinamide], the inhibition at 1 µM against cKIT was 10%; in test [1], 98%; on PDGFRb, 2%.
For the molecule `CNC(=O)c1cc(Oc2ccc3nc(Nc4ccccc4OCCOC)ncc3c2)ccn1` [Example 69, 4-(2-(2-(2-methoxyethoxy)phenylamino)quinazolin-6-yloxy)-N-methylpicolinamide], the inhibition at 1 µM came to 17% against cKIT, 99% in test [1] and 5% on PDGFRb.
The matching figures for `CNC(=O)c1cc(Oc2ccc3nc(Nc4ccccc4OCCO)ncc3c2)ccn1` [Example 70, 4-(2-(2-(2-hydroxyethoxy)phenylamino)quinazolin-6-yloxy)-N-methylpicolinamide]: 11%, 95% and 13%.
In the same order, the values of `CNC(=O)c1cc(Oc2ccc3nc(Nc4ccccc4OCCCO)ncc3c2)ccn1` [Example 71, 4-(2-(2-(3-hydroxypropoxy)phenylamino)quinazolin-6-yloxy)-N-methylpicolinamide] are under 1%, 90% and 11%.
In the same order, the values of `CNC(=O)c1cc(Oc2ccc3nc(NC(=O)c4ccccc4)ncc3c2)ccn1` [Example 72, 4-(2-benzamidoquinazolin-6-yloxy)-N-methylpicolinamide] are 13%, 98% and 43%.
Take `CNC(=O)c1cc(Oc2ccc3nc(N[C@@H]4CCCC[C@H]4N)ncc3c2)ccn1` [Example 73, 4-(2-((1R,2R)-2-aminocyclohexylamino)quinazolin-6-yloxy)-N-methylpicolinamide]: the figures for the inhibition at 1 µM (on cKIT; in test [1]; on PDGFRb) were 8%, 62% and 19%, respectively.
In the same order, the values of `CNC(=O)c1cc(Oc2ccc3nc(NC4CCCCC4)ncc3c2)ccn1` [Example 74, 4-(2-(cyclohexylamino)quinazolin-6-yloxy)-N-methylpicolinamide] are 18%, 100% and under 1%.
The matching figures for `OC(c1ccncc1)c1ccc2nc(NCC3CCCCC3)sc2c1` (stereo not drawn) [Example 76, (2-(cyclohexylmethylamino)benzo [d]thiazol-6-yl)(pyridin-4-yl)methanol]: 49%, 65% and 27%.
`c1cc(Cc2ccc3nc(NCC4CCCCC4)sc3c2)ccn1` [Example 77, N-(cyclohexylmethyl)-6-(pyridin-4-ylmethyl)benzo[d]thiazol-2-amine]: the inhibition at 1 µM on cKIT came to 10%; in test [1], 74%; at PDGFRb, 16%.
In the same order, the values of `CNC(=O)c1cc(Sc2ccc3nc(NCC4CCCCC4)sc3c2)ccn1` [Example 78, 4-(2-(cyclohexylmethylamino)benzo [d]thiazol-6-ylthio)-N-methylpicolinamide] are 13%, 100% and 34%.
The matching figures for `CNC(=O)c1cc(Nc2ccc3nc(N[C@@H]4CCCC[C@H]4O)sc3c2)ccn1` [Example 79, 4-(2-((1R,2R)-2-hydroxycyclohexylamino)benzo[d]thiazol-6-ylamino)-N-methylpicolinamide]: 13%, 97% and under 1%.
In the same order, the values of `CNC(=O)c1cc(Oc2ccc3sc(N[C@@H]4CCCC[C@H]4O)nc3c2)ccn1` [Example 81, 4-(2-((1R,2R)-2-hydroxycyclohexylamino)benzo[d]thiazol-5-yloxy)-N-methylpicolinamide] are 39%, 99% and 71%.
With `CNC(=O)c1cc(Oc2ccc3nc(N[C@@H]4CCCC[C@H]4O)[nH]c3c2)ccn1` [Example 82, 4-(2-((1R,2R)-2-hydroxycyclohexylamino)-1H-benzo[d]imidazol-6-yloxy)-N-methylpicolinamide], the figures for the inhibition at 1 µM (on cKIT; in test [1]; at PDGFRb) were 30%, 99% and 30%, respectively.
Regarding `CNC(=O)c1cc(Oc2ccc3nc(N[C@H](C)C4CCCCC4)[nH]c3c2)ccn1` [Example 83, (R)-4-(2-(1-cyclohexylethylamino)-1H-benzo[d]imidazol-6-yloxy)-N-methylpicolinamide], the inhibition at 1 µM (at cKIT; in test [1]; at PDGFRb) was 100% throughout.

(Values after patent US20100261679A1 (priority 2007, published 2010).)
